In article PMC6234764, “First Insights Into Within Host Translocation of the Bacillus cereus Toxin Cereulide Using a Porcine Model” (Frontiers in Microbiology, 2018):

Legend:
[1] = ref Andersson et al., 2007; cited from earlier work
Experimental: Due to the lipophilic character of cereulide (log Kow 5.96) ([Andersson et al., 2007]), it could be assumed that part of the ingested cereulide adheres to digested food and is rapidly excreted via feces. Indeed, as shown in our porcine model, within the first 48 h 10–15% of the cereulide toxin orally administered is shed with feces. Cereulide was already detected in feces a few hours after toxin administration, which allows an early, non-invasive identification of cereulide intoxications. Even in case of the low dose of cereulide used in the chronic trial (10 μg cereulide kg^-1) cereulide coul ...

[2] = system: piglets; assay: Histological examination of organs; assay type: in vivo, pig; details: pigs orally challenged with cereulide
Experimental: (§1) After oral administration of cereulide, piglets were monitored for unusual behavior and examined physically with special respect on rectal body temperature as well as pulse and respiration rate, every 2–3 h. Blood samples were taken from the Vena cava cranialis. Urine and feces were collected during the whole experiment and stored at -80°C. After the experiment pigs were anaesthetized by intramuscular injection of a bolus of ketamine (10 mg kg^-1) and azaperone (1.3 mg kg^-1). When sedation was deep enough cerebrospinal fluid (liquor) was taken by lumbar puncture. Finally, pigs were euthanized by intracardial injection of T61®. Animals were then necropsied and parts of the following organs, tissues or body fluids were taken for SIDA-MS analysis: liver, lung, heart, kidney, brain, spleen, small and large intestine, lymph nodes, gastric as well as intestinal contents, skeletal muscle, and abdominal and subcutaneous fat. Samples of liver, lung, heart, kidney, brain, spleen, small, and large intestine were collected for histological analysis.

[3] = system: piglets; assay: Blood analysis: hematology and clinical chemistry; assay type: in vivo, pig
Experimental: A total of four experiments, each including four treated animals and one control pig, was performed to investigate the action of cereulide on piglets after oral intake of cereulide. Pigs were either challenged orally with a single dose (acute trials) or with daily over a period of 7 days (chronic trial) (see Table 1). One hour before cereulide toxin administration blood samples were taken by puncturing the anterior Vena cava and piglets were weighed for calculation of the cereulide concentration (t = 0 h). In the intoxication experiment with 150 μg kg^-1 blood samples were taken 68 h before the experiment to reduce the distress for the animals at the start day of the experiments. Blood-chemical, immunological, and histological analyses of selected organs as well as quantification of cereulide in organs, tissues, urine and feces were carried out as detailed below.
as §1
One milliliter EDTA-stabilized blood and 3 mL heparin-stabilized blood (worked up to serum) were screened for erythrocyte number, hemoglobin, hematocrit, mean cellular volume (MCV), mean cellular hemoglobin (MCH), mean cellular hemoglobin concentration (MCHC), leukocyte number, mean peroxidase index (MPXI), numbers of monocytes, lymphocytes, eosinophils, basophils, lymphoblasts, juvenile and segmented neutrophils, as well as glucose, urea, creatinine, total protein, aspartate amino transferase (AST), alanine amino transferase (ALT), […] (GLDH), gamma glutamyl transferase (GGT), bile acid, lipase, creatine kinase, sodium, potassium, chloride, calcium, and phosphorus at the central diagnostic unit of the University of Veterinary Medicine Vienna.

[4] = plasma of rabbits, direct intravenous injection; ref Cui et al., 2016; cited from earlier work
[5] = ref Ehling-Schulz et al., 2004, Rajkovic et al., 2008, cited from earlier work
From the text: The reported incidence of foodborne outbreaks caused by Bacillus toxins is steadily increasing worldwide throughout the last decade. For instance, in the European Union about 600–700 confirmed cases of foodborne outbreaks linked to B. cereus toxins are annually reported ([Messelhäußer and Ehling-Schulz, 2018]). Due to the rise of reports on severe intoxications, the Bacillus cereus toxin cereulide is of special concern. Cereulide is a small dodecadepsipeptide toxin that evokes emesis a short time after ingestion of contaminated food ([Agata et al., 1995]). Usally the disease is self limiting b ...

SMILES: CC(C)C[C@H]1OC(=O)[C@H](C(C)C)NC(=O)[C@H](C(C)C)OC(=O)[C@@H](C)NC(=O)[C@@H](CC(C)C)OC(=O)[C@H](C(C)C)NC(=O)[C@H](C(C)C)OC(=O)[C@@H](C)NC(=O)[C@@H](CC(C)C)OC(=O)[C@H](C(C)C)NC(=O)[C@H](C(C)C)OC(=O)[C@@H](C)NC1=O [cereulide]
- log Kow [1]: 5.96
- Histological examinations of liver, lung, heart, kidneys, brain, spleen and gastrointestinal tract [2]: did not reveal any notable or specific pathological changes
- Influence on blood cell composition and biochemical markers in blood ([3]; acute trials, samples before and after 8 (only 150 μg kg^-1), 24 and 48 h): no significant influence
- Creatine kinase (CK) ([3]; daily oral dose 10 μg kg^-1, after 3 days, all treated pigs): increase
- AST levels ([3]; daily oral dose 10 μg kg^-1, two out of four treated pigs after 3 and 7 days): elevated
- Creatine kinase (CK) levels ([3]; single oral dose 30 μg kg^-1): increased
- Creatine kinase (CK) levels ([3]; single oral dose 150 μg kg^-1): increased
- Leukocytes ([3]; single oral dose 150 μg kg^-1, all animals): increased levels
- Aspartate aminotransferase (AST) ([3]; single oral dose 150 μg kg^-1, three out of four pigs): transient increase
- Elimination half-life [4]: 10.8 ± 9.1 h
- Stability to enzymatic cleavage ([5]; gastro-intestinal passage): resistance to enzymatic cleavage
- Temperature and pH stability [5]: high temperature and pH stability
